Assay [1] addresses T1, human topoisomerase II (Homo sapiens, UniProt P11388).
T1 construct: Topo II was purified from late log phase suspension cultures of HeLa WIS; endogenous in cells; host or cells: HeLa WIS
The experiment in a line: Mammalian topoisomerase II inhibition assay (topo II covalently attached to DNA, relative to mAMSA). In kind it is biochemical. As to conditions: read-out: topo II inh. EC50. The procedure, abridged:
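HeLa-purified human topo II was reacted with compound for 20 min at 37 °C, and covalent topo II-DNA complexes were recovered by SDS/KCl precipitation and scintillation counting, in duplicate. Compounds were screened at 2, 20 and 200 μg/ml, then titrated. Complex formation is scaled to the maximum at 10 μg/ml mAMSA.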

Assay [2] relates to P388 murine leukemia cells. The assay can be described thus: In vitro cytotoxicity, one-hour exposure, clonogenic survival of P388 cells. Format: cell-based. The conditions noted are these: Mus musculus, read-out: in vitro cytotoxicity IC50, 1 hr exp. Put shortly: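 For continuous exposure, log-phase P388 murine leukemia cells were co-incubated with a range of compound concentrations for 48 hours and total cells counted on a Coulter counter. For one-hour exposure, survival was scored as soft-agar colonies after 7-10 days at 37° C and 5% CO2. Survival is expressed relative to untreated control.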

Where [3] appears, read: footnote c: bell-shaped dose response curve noted, 50% of maximal effect of mAMSA.
[4] abbreviates: conc. achieving 50% of maximal effect of mAMSA, topo II from HeLa cells.

Where two headings read alike, the source gives them in different places.

T1 sequence (P11388 whole entry): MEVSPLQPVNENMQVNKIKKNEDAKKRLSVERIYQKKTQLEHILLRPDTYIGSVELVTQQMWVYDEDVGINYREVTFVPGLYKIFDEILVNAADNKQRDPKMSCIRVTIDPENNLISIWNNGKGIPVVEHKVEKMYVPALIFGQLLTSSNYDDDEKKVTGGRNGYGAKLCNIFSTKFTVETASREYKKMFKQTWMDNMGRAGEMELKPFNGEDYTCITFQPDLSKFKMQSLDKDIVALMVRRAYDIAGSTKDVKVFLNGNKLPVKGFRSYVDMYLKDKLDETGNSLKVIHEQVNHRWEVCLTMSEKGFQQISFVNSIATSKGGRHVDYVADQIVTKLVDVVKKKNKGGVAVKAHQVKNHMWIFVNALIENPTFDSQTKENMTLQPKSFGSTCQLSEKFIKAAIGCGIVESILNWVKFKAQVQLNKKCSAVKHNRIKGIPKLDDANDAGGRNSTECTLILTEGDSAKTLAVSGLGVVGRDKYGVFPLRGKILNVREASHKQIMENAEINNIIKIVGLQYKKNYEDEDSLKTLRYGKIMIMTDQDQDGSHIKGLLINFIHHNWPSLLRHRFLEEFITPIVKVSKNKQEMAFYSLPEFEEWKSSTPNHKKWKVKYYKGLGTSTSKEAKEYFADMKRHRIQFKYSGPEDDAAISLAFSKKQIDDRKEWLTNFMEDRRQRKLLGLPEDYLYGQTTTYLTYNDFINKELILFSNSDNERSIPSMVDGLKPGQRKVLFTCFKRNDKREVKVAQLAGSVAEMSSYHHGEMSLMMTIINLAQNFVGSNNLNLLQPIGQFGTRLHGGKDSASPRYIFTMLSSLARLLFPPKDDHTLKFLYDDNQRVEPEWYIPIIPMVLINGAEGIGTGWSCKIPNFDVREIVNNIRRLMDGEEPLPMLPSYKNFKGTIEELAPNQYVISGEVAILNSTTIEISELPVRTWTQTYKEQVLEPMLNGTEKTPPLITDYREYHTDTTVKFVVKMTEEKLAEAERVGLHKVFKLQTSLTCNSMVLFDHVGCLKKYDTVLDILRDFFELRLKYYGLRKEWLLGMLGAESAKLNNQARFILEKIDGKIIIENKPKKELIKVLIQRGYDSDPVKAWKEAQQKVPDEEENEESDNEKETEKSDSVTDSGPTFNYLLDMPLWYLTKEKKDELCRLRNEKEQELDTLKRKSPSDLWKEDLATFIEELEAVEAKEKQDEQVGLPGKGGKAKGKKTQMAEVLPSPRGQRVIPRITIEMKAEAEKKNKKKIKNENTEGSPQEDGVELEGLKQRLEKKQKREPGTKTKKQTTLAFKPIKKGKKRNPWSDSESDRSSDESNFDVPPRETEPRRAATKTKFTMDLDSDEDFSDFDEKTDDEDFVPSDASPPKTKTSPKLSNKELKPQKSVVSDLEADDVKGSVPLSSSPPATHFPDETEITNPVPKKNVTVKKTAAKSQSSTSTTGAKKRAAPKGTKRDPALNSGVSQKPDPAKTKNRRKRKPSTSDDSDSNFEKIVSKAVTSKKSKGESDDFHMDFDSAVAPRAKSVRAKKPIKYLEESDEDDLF

As to `Cc1cc(-c2c(F)cc3c4nn(CCN(C)C)c(=O)c-4cn(C4CC4)c3c2F)cc(C)n1.O=C(O)/C=C/C(=O)O` [Example 1, 5-Cyclopropyl-6,8-difluoro-2,5-dihydro-2-[2-(dimethylamino)-ethyl]-7-(2,6-dimethyl-4-pyridinyl)-3H-pyrazolo[4,3-c]quinolin-3-one (E)-2-butendioate (1:1)], the concentration for a half-maximal effect (EC50) in assay [1] (setting [3]) came to 2600 nM. Further, the IC50 in assay [2] (P388, 1 h) was 260 nM.
As for `Cc1cc(-c2c(F)cc3c4nn(CCCN(C)C)c(=O)c-4cn(C4CC4)c3c2F)cc(C)n1` [Example 14], in assay [1] (setting [4]), the EC50 worked out at 1700 nM. Also, the 50% inhibitory concentration (IC50) in assay [2] (P388, 1 hr exposure) came out at 160 nM.
For the molecule `Cc1cc(-c2c(F)cc3c4nn(CCNCCO)c(=O)c-4cn(C4CC4)c3c2F)cc(C)n1` [Example 17], the EC50 in assay [1] (setting [3]) stood at 3300 nM. In addition, in assay [2] (P388, 1 hr exposure), the IC50 was determined as 1300 nM.
Regarding `Cc1cc(-c2c(F)cc3c4nn([C@H]5CC[C@@H](N(C)C)CC5)c(=O)c-4cn(C4CC4)c3c2F)cc(C)n1` [Example 51a], the concentration giving a half-maximal response (EC50) in assay [1] (setting [4]) stood at 1700 nM. For the same molecule, in assay [2] (P388, 1 hr exposure), the IC50 came to 67 nM.
Take `Cc1cc(-c2c(F)cc3c4nn([C@H]5CC[C@H](N(C)C)CC5)c(=O)c-4cn(C4CC4)c3c2F)cc(C)n1` [Example 51b]: in assay [1] (setting [4]), the EC50 was determined as 4400 nM. Further, the half-maximal inhibitory concentration (IC50) in assay [2] (P388, 1 hr exposure) was found to be 260 nM.
The like results for `Cc1cc(-c2c(F)cc3c4nn([C@H]5CC[C@@H](N)CC5)c(=O)c-4cn(C4CC4)c3c2F)cc(C)n1` [Example 56a, 2-(Cis-4-Aminocyclohexyl)-5-cyclopropyl-6,8-difluoro-2,5-dihydro-7-(2,6-dimethyl-4-pyridinyl)-3H-pyrazolo-[4,3-c]quinolin-3-one] were, in that order, 500 nM and 440 nM.

Source of the values: US5334595A, “Pyrazoloquinolones as anticancer agents” (priority 1992, dated 1994).
